Patent publication US8389573B2, “Glycyrrhetinic acid derivatives” (Wellington Laboratories Inc., priority 2006, dated 2013)

How the values were obtained:
SW480 cells = test: Western blot analysis in SW480 cells; assay type: cell-based, human
Procedure: SW-480 and HT-29 (3×10^5) cells were seeded in six-well plates in DMEM/Ham's F-12 media containing 2.5% charcoal-stripped FBS for 24 h and then treated with either the vehicle (DMSO) or the indicated compounds. Whole-cell lysates were obtained using high-salt buffer [50 mM HEPES, 500 mM NaCl, 1.5 mM MgCl2, 1 mM EGTA, 10% glycerol, and 1% Triton X-100, pH 7.5, and 5 μl/ml Protease Inhibitor Cocktail (Sigma-Aldrich)]. Protein samples were incubated at 100° C. for 2 min, separated on 10% SDS-PAGE at 120 V for 3 to 4 h in 1× running buffer (25 mM Tris-base, 192 mM glycine, and 0.1% SDS, pH 8.3), and transferred to polyvinylidene difluoride membrane (PVDF; Bio-Rad, Hercules, Calif.) at […] for 16 h at 4° C. in 1× transfer buffer (48 mM Tris-HCl, 39 mM glycine, and 0.025% SDS). The PVDF membrane was blocked in 5% TBST-Blotto (10 mM Tris-HCl, 150 mM NaCl, pH 8.0, 0.05% Triton X-100, and 5% nonfat dry milk) with gentle shaking for 30 min and was incubated in fresh 5% TBST-Blotto with 1:1000 (for caveolin-1, p27, p21, cyclin D1, Grp78), 1:500 (for KLF4, NAG-1), 1:250 (for PARP), and 1:5000 (for β-actin) primary antibody overnight with gentle shaking at 4° C. After washing with TBST for 10 min, the PVDF membrane was incubated with secondary antibody (1:5000) in 5% TBST-Blotto for 90 min. The membrane was washed with TBST for 10 min, incubated with 10 ml of chemiluminescence substrate (PerkinElmer) for 1.0 min, and exposed to Kodak X-OMAT AR autoradiography film (Eastman Kodak, Rochester, N.Y.).

SW480 colon cancer cells = test: Cell proliferation assay in SW480 cells; assay type: cell-based; conditions: Homo sapiens, read-out: IC50, growth inhibition / cell proliferation
Procedure: (§1) Human colon carcinoma cell lines SW480 and HT29 were provided by Dr. Stan Hamilton, M.D. Anderson Cancer Center (Houston, Tex.); SW-480 and HT-29 cells were maintained in Dulbecco's modified Eagle's medium nutrient mixture with Ham's F-12 (DMEM/Ham's F-12; Sigma-Aldrich, St. Louis, Mo.) with phenol red supplemented with 0.22% sodium bicarbonate, 0.011% sodium pyruvate, and 5% fetal bovine serum and 10 ml/l 100× antibiotic antimycotic solution (Sigma-Aldrich). Cells were maintained at 37° C. in the presence of 5% CO2.
(§2) SW480 and HT 29 Cells (2×10^4) were plated in 12-well plates, and media were replaced the next day with DMEM/Ham's F-12 media containing 2.5% charcoal-stripped FBS and either vehicle (DMSO) or the indicated ligand and dissolved in DMSO. Fresh media and compounds were added every 48 h. Cells were counted at the indicated times using a Coulter Z1 cell counter. Each experiment was done in triplicate, and results are expressed as means±S.E. for each determination

PPARγ [1] = target: T1, PPARγ (Homo sapiens, UniProt P37231); test: PPRE3-Luc transfection and luciferase assay in SW480 cells; assay type: cell-based
T1 construct: endogenous in cells; host or cells: SW480 colon cancer cells
T1 sequence (P37231 1-505): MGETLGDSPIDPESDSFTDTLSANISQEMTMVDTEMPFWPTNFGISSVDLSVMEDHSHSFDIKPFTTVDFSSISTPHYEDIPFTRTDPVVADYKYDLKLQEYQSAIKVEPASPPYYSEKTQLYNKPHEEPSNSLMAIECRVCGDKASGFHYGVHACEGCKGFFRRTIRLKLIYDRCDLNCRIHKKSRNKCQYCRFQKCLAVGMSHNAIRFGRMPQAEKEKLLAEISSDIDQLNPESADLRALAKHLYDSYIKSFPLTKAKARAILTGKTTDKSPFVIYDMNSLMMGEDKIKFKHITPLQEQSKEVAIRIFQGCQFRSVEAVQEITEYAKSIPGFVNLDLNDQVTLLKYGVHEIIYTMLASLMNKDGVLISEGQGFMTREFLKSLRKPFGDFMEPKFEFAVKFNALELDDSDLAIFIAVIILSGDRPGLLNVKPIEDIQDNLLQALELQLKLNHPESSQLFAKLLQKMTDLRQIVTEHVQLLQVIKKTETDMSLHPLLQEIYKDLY
Procedure: (§3) The Gal4 reporter containing 5× Gal4 response elements (pGal4) was kindly provided by Dr. Marty Mayo (University of North Carolina, Chapel Hill, N.C.). Gal4 DBD-PPARγ construct (gPPARγ) was a gift of Dr. Jennifer L. Oberfield (GlaxoSmithKline Research and Development, Research Triangle Park, N.C.). PPRE3-luc construct contains three tandem PPREs with a minimal TATA sequence in pGL2.
(§4) Colon Cancer cell lines SW480 and HT29 (1×10^5 cells/well) were plated in 12-well plates in DMEM/Ham's F-12 media supplemented with 2.5% charcoal-stripped FBS. After 16 h, various amounts of DNA [i.e., Gal4Luc (0.4 μg), β-Gal (0.04 μg), Gal4PPAR and PPRE3-Luc (0.04 μg)] were transfected using LipofectAMINE™ reagent (Invitrogen) following the manufacturer's protocol. Five hours after transfection, the transfection mix was replaced with complete media containing either vehicle (DMSO) or the indicated ligand for 20 to 22 h. Cells were then lysed with 100 μl of 1× reporter lysis buffer, and 30 μl of cell extract was used for luciferase and […] assays. A LumiCount™ luminometer (PerkinElmer Life and Analytical Sciences) was used to quantitate luciferase and β-Gal activities, and the luciferase activities were normalized to β-Gal activity. Results are expressed as means±S.E. for at least three replicate determinations for each treatment group

PPARγ [2] = test: PPARγ-GAL4/pGAL4 transfection and luciferase assay in HT-29 cells; assay type: cell-based
Procedure: as §3, §4

HT-29 colon cancer cells = test: Cell proliferation assay in HT-29 cells; assay type: cell-based; conditions: Homo sapiens, read-out: IC50, growth inhibition / cell proliferation
Procedure: as §1, §2

PPARγ [3] = test: PPARγ-GAL4/pGAL4 transfection and luciferase assay in SW480 cells; assay type: cell-based; conditions: for PPARγ transactivation: up to 30 μM
Procedure: as §3, §4

PPARγ [4] = test: PPARγ-GAL4/GAL4-Luc or PPRE3-Luc transactivation in LNCaP cells; assay type: cell-based; conditions: 1-5 μM
Description: Transfections: The Gal4 reporter construct containing 5× Gal4 response elements (pGal4) was kindly provided by Dr. Marty Mayo (University of North Carolina, Chapel Hill, N.C.). The Gal4 DBD-PPARγ construct was a gift of Dr. Jennifer L. Oberfield (Glaxo Wellcome Research and Development, Research Triangle Park, N.C.). The PPRE-luc construct contains three tandem PPREs with a minimal TATA sequence linked to the luciferase gene in pGL2. The AR-luc construct containing the −5400 to +580 region of the androgen receptor promoter was provided by Dr. Donald J. Tindall (Mayo Clinic, Rochester, Minn.), and the PSA-luc construct containing the 5.8-kilobase region of the PSA promoter was provided by Dr. Hong-Wu Cheng (University of California, Davis, Calif.). LNCaP cells (1×10^5) were seeded in 12-well plates in DMEM/Ham's F-12 media supplemented with 2.5% charcoal-stripped FBS and grown overnight. Transient transfections were performed using Lipofectamine reagent (Invitrogen) according to the protocol provided by the manufacturer. Transfection studies were performed using 0.4 μg of Gal4Luc, 0.04 μg of β-galactosidase, 0.04 μg of Gal4 DBD-PPARγ, 0.4 μg of AR-luc, and 0.3 μg of PSA-luc. Six hr after transfection, the transfection mix was replaced with complete media containing either vehicle (DMSO) or the indicated ligand for 20 to 22 hr. Cells were then lysed with 100 μl of 1× reporter lysis buffer, and 30 μl of cell extract was used for luciferase and β-galactosidase assays. A Lumicount luminometer (PerkinElmer Life and Analytical Sciences) was used to quantify luciferase and β-galactosidase activities, and the luciferase activities were normalized to β-galactosidase activity.

[5] = test system: LNCaP human prostate carcinoma cells; test: Cell proliferation assay in LNCaP cells; assay type: cell-based; conditions: 96 hr, read-out: IC50, inhibition of LNCaP cell growth
Procedure: Cell lines: LNCaP human prostate carcinoma cells were obtained from American Type Culture Collection (Manassas, Va.). Fetal bovine serum was obtained from JRH Biosciences, Lenexa, Kans. LNCaP cells were maintained in RPMI 1640 (Sigma Chemical, St. Louis, Mo.) supplemented with 0.22% sodium bicarbonate, 0.011% sodium pyruvate, 0.45% glucose, 0.24% HEPES, 10% FBS, and 10 mL/L of 100× antibiotic/antimycotic solution (Sigma). Cells were maintained at 37° C. in the presence of 5% CO2.
Cell Proliferation and DNA Fragmentation Assays: LNCaP prostate cancer cells (2×10^4 per well) were added to 12-well plates and allowed to attach for 24 hr. The medium was then changed to DMEM/Ham's F-12 media containing 2.5% charcoal-stripped FBS, and either vehicle (DMSO) or the indicated C-DIMs were added. Fresh medium and indicated compounds were added every 48 hr, and cells were then trypsinized and counted after 2, 4, and 6 days using a Coulter Z1 cell counter (Beckman Coulter, Fullerton, Calif.). Each experiment was done in triplicate, and results are expressed as means±S.E. for each set of three experiments. The DNA fragmentation assay was performed using a BioVision Apoptotic DNA ladder extraction kit (BioVision, Mountain View, Calif.) according to the manufacturer's protocol.

PPARγ [6] = conditions: SW480 cells, previous studies (22); cited from earlier work
[7] = test system: Panc28 pancreatic cancer cells; test: Growth inhibition in Panc28 pancreatic cancer cells; assay type: cell-based; conditions: Pancreatic cancer cell

| Compound | melting point | IC50 (SW480 colon cancer cells) | PPARγ transactivation (GAL4-PPARγ/GAL4-Luc) (PPARγ [2]) | IC50 (HT-29 colon cancer cells) | PPARγ-dependent transactivation (luciferase activity) (PPARγ [4]) | IC50 [5] | PPARγ transactivation (PPARγ [3]) | also measured |
| --- | --- | --- | --- | --- | --- | --- | --- | --- |
| CC1(C)C(=O)C(C#N)=C[C@]2(C)[C@H]3C(=O)C=C4[C@@H]5C[C@@](C)(C(=O)O)CC[C@]5(C)CC[C@@]4(C)[C@]3(C)CC[C@@H]12 [β-CDODA, 2-cyano-3,11-dioxo-18β-oleana-1,12-dien-30-oic acid] | 195 to 197 °C | 2.5 to 5 µM | induced transactivation | 1 µM | – | – | – | concentration at which KLF4 is induced (SW480 cells; SW480, 24 hr): 10 to 20 µM; PARP cleavage (SW480 cells; SW480, 24 hr, 10-40 μM): observed; transactivation of PPRE3-Luc (PPARγ [1]): induced transactivation; PPRE3-Luc transactivation after cotreatment with PPARγ antagonists T007 and GW9662 (PPARγ [1]; 10 μM antagonist): inhibited; induced luciferase activity after cotreatment with PPARγ antagonist T007 (PPARγ [3]; 1.0, 2.5, 5.0 β-CDODA-Me or 10, 20, 30 μM β-CDODA, 10 μM T007): inhibited; increase in luciferase activity (PPARγ activation) (PPARγ [3]; 20-30 μM): < 4.5 fold |
| COC(=O)[C@@]1(C)CC[C@]2(C)CC[C@]3(C)C(=CC(=O)[C@@H]4[C@@]5(C)C=CC(=O)C(C)(C)[C@@H]5CC[C@]43C)[C@@H]2C1 [β-DODA-Me, Methyl 3,11-dioxo-18β-oleana-1,12-dien-30-oate] | 192 to 194 °C | 10 µM | minimal activity | 5 to 10 µM | did not activate PPARγ | 10 to 15 µM | did not enhance transactivation | – |
| CC1(C)C(=O)C=C[C@]2(C)[C@H]3C(=O)C=C4[C@@H]5C[C@@](C)(C(=O)O)CC[C@]5(C)CC[C@@]4(C)[C@]3(C)CC[C@@H]12 [β-DODA, 3,11-Dioxo-18β-oleana-1,12-dien-30-oic acid] | 270 to 275 °C | 25 µM | minimal activity | 20 to 30 µM | – | > 15 µM | did not enhance transactivation | – |
| CC1(C)CC[C@]2(C(=O)O)CC[C@]3(C)[C@H](C(=O)C=C4[C@@]5(C)C=C(C#N)C(=O)C(C)(C)[C@@H]5CC[C@]43C)[C@@H]2C1 [CDDO, 2-cyano-3,12-dioxo-oleana-1, 9(11)-diene-28-oic acid, reference compound] | – | – | – | – | – | – | – | caveolin-1 protein expression (SW480 cells; SW480, treatment for 3 days): induce caveolin-1 protein; luciferase activity with GAL4-PPARγ/GAL4-Luc (PPARγ [6]): induced luciferase activity |
| Methyl 2-iodo-3,11-dioxo-18β-oleana-1,12-diene-30-oate [β-IDODA-Me] | – | – | – | – | did not activate PPARγ | – | – | – |
| COC(=O)[C@@]1(C)CC[C@]2(C)CC[C@]3(C)C(=CC(=O)[C@@H]4[C@@]5(C)C=C(C#N)C(=O)C(C)(C)[C@@H]5CC[C@]43C)[C@H]2C1 [α-CDODA-Me, Methyl 2-cyano-3,11-dioxo-18α-oleana-1,12-dien-30-oate] | – | 0.5 µM | – | – | – | – | – | IC50 [7]: 0.5 to 1 µM |
